Like-named read-outs stand apart in the source and are kept apart here. Values belong to the compound of their own block, whether it stands above or below them.
What was measured:
[1] = system: liver metastasis in gastrointestinal cancers; conditions: particularly liver metastasis in gastrointestinal cancers; WO2014/071067; cited from earlier work
[2] = β-GPA plasma pharmacokinetics after RGX-202 BID dosing; assay type: in vivo, human; conditions: for AUC(0-t): read-out: Average AUC0-24
Experimental: Method: Subjects were administered RGX-202 (a highly compressible salt form of β-GPA) in a regimen of 600 mg BID, 1,200 mg BID, 2,400 mg BID, or 3,600 mg BID, and plasma samples were taken from the subjects and tested using the protocol described below for levels of β-GPA over the course of 24 hours after administration.
The analyte, β-GPA, and internal standard (IS), [13C415N3]-β-GPA, are extracted from 50.0 μL of human plasma by a protein precipitation extraction procedure. The extraction procedure begins with the addition of 50.0 μL of internal standard working solution to all wells except double blanks, which receive 50.0 μL of water. Next the plate is covered and vortexed. Then 500 μL of acetonitrile/methanol (50/50, v/v) is added to all wells. Next the plate is covered, vortexed and centrifuged. Using a Tomtec Quadra 4, 200 μL of the supernatant is transferred into a new plate. Then 300 μL acetonitrile/methanol (50/50, v/v) is added to all wells. The plate is then sealed and vortexed. The extracts are chromatographed under reverse phase conditions on a Luna HPLC column 50×2.0 mm, 3 μm column using a gradient system with 10 mM ammonium acetate in water and acetonitrile. The compounds are detected and quantified by tandem mass spectrometry in positive ion mode on a MDS Sciex API 4000 equipped with a Turbo Ionspray® interface.

[3] = system: animal models of noninsulin-dependent diabetes; conditions: animal models of noninsulin-dependent diabetes (rats, monkeys, hamsters); cited from earlier work
[4] = Solubility of β-GPA; assay type: physicochemical
[5] = system: advanced gastrointestinal tumors; assay: RGX-202 monotherapy or combination with FOLFIRI in subjects with advanced gastrointestinal tumors; assay type: in vivo, human
Experimental: Method: Subjects with advanced gastrointestinal tumors (e.g., locally advanced and unresectable, or metastatic) were administered multiple doses of orally administered RGX-202 as a monotherapy or in combination with irinotecan, folinic acid, and fluorouracil. In the monotherapy arm of the study, RGX-202 was administered orally twice or three times daily on days 1-28 of each 28-day cycle. The dose regimen was dependent on the cohort in which the patient was enrolled. In the combination arm of the study, RGX-202 was administered in the same way as described for the monotherapy arm in combination with FOLFIRI. FOLFIRI was administered by intravenous administration of irinotecan (180 mg/m^2) over 90 minutes concurrently with intravenous administration of folinic acid (400 mg/m^2) over 2 hours, followed by fluorouracil (5-FU) (400 mg/m^2) intravenous bolus and then 5-FU (2400 mg/m^2) intravenous infusion over 46 hours, on days 1 and 15 of each 28-day cycle. During the dose escalation, subjects were evaluated for pharmacokinetics (using the method as described in Example 1), pharmacodynamics, safety, and efficacy of the drug.

[6] = 1200 mg BID, human plasma, 1,200 mg BID
[7] = 2400 mg BID, human plasma, 2,400 mg BID
[8] = 3600 mg BID, human plasma, 3,600 mg BID

- Cmax [2, 6]: 4790 ng/mL
- AUC(0-t) [2, 6]: 45.2 µg·h/mL
- Cmax [2, 7]: 26800 ng/mL
- AUC(0-t) [2, 7]: 165 µg·h/mL
- Cmax [2, 8]: 47700 ng/mL
- AUC(0-t) [2, 8]: 241 µg·h/mL
- AUC Dose Acc. Ratio ([2]; human plasma, 600 mg BID): 1.0
- Cmax ([2]; human plasma, 600 mg BID): 1400 ng/mL
- Cmax Dose Acc. Ratio ([2]; human plasma, 600 mg BID): 1.0
- Dose Normalized Average Cmax ([2]; human plasma, 600 mg BID): 1.2 ng/mL
- Dose-Normalized Average AUC0-24 ([2]; human plasma, 600 mg BID): 13.1 ng·h/mL
- AUC(0-t) ([2]; human plasma, 600 mg BID): 15.7 µg·h/mL
- AUC Dose Acc. Ratio ([2]; human plasma, 1,200 mg BID): 1.4
- Cmax Dose Acc. Ratio ([2]; human plasma, 1,200 mg BID): 1.7
- Dose Normalized Average Cmax ([2]; human plasma, 1,200 mg BID): 2.0 ng/mL
- Dose-Normalized Average AUC0-24 ([2]; human plasma, 1,200 mg BID): 18.8 ng·h/mL
- AUC Dose Acc. Ratio ([2]; human plasma, 2,400 mg BID): 2.7
- Cmax Dose Acc. Ratio ([2]; human plasma, 2,400 mg BID): 4.8
- Dose Normalized Average Cmax ([2]; human plasma, 2,400 mg BID): 5.6 ng/mL
- Dose-Normalized Average AUC0-24 ([2]; human plasma, 2,400 mg BID): 34.3 ng·h/mL
- AUC Dose Acc. Ratio ([2]; human plasma, 3,600 mg BID): 2.6
- Cmax Dose Acc. Ratio ([2]; human plasma, 3,600 mg BID): 5.7
- Dose Normalized Average Cmax ([2]; human plasma, 3,600 mg BID): 6.6 ng/mL
- Dose-Normalized Average AUC0-24 ([2]; human plasma, 3,600 mg BID): 33.5 ng·h/mL
- solubility in organic solvents ([4]; organic solvents): low solubility
- solubility ([4]; water): > 50 mg/mL
SMILES: N=C(N)NCCC(=O)O [β-GPA, β-Guanidinopropionic acid]
- suppression of metastasis [1]: effective
- effect on hyperglycemia [3]: ameliorate hyperglycemia

SMILES: [H]/N=C(\N)NCCC(=O)O [RGX-202]
- subjects exhibiting a partial response ([5]; of the 10 subjects who received the monotherapy, at 3,600 mg BID after 40 weeks): one
- subjects exhibiting stable disease ([5]; of the 10 subjects who received the monotherapy, at doses of 1,200 mg BID, 2,400 mg BID and 3,600 mg BID): three
- objective activity ([5]; subjects with advanced gastrointestinal tumors): activities were observed
- dose limiting toxicity ([5]; subjects with advanced gastrointestinal tumors, oral dose escalation, monotherapy or combination): did not exhibit dose limiting toxicity

From patent US12011427B2, “Methods of treating cancer” (Inspirna, Inc., priority 2019, dated 2024)
